For assay [1], the system named is attachment of normal rat kidney cells to vitronectin. As to the kind of experiment: Cell adhesion assay: inhibition of attachment of normal rat kidney cells to vitronectin. The following applies: vitronectin-coated wells, peptide 0 to 10.0 mM, FIG. 2. The assay is classed as cell-based. The method, then:
(§1) Fibronectin and vitronectin were purified from human plasma according to the methods of Ruoslahti et al., (1982) Meth. Enz. 82:803; and Hayman et al., (1983) PNAS 80:4003, respectively, both of which are incorporated herein by reference. The adhesion of normal rat kidney cells to fibronectin and vitronectin was assayed as described in Ruoslahti et al., Meth. Enz. supra. Briefly, 0.1 ml solution of fibronectin or vitronectin at a concentration of 12 μg/ml in 0.1M PBS was placed in each well of 96-well plastic microtiter plates and left for 2 hours at room temperature. The unattached protein was removed by washing three times with PBS.
(§2) One day before the assay, a confluent culture of normal rat kidney cells was split 1:2 using standard tissue culture trypsin. The cells were washed three times with PBS, pH 7.2. […] Before the last centrifugation, a sample was taken and cell numbers and viability by trypan blue exclusion are determined. […]
(§3) The unattached cells were removed simply by removing the medium and washing the wells. […] The cells were then fixed with 3% paraformaldehyde in PBS and stained with 1% toluidine blue, paraformaldehyde in PBS, and attached cells counted. Their number was determined using a cell counter that is capable of counting cells attached to a surface (Dynatech Laboratories, Alexandria, Va.). […]

Assay [2] has as its system attachment of normal rat kidney cells to fibronectin. As to the kind of experiment: Cell adhesion assay: inhibition of attachment of normal rat kidney cells to fibronectin. The assay is classed as cell-based. The following applies: fibronectin-coated wells, peptide 0 to 10.0 mM, FIG. 2. As for the experimental part: as §1, §2, §3

Where no end group is shown, it is not given here. [ ]: non-standard residue; d: D form. Pen = CC(C)(S)[C@H](N)C(=O)O

In the case of “G[Pen]GRGDSPC (cysteine pairing not given here) [linear peptide]”, the “inhibition of attachment to vitronectin” value in assay [1] is given as “inhibited attachment of cells to both substrates at relatively similar concentrations”. In addition, the “inhibition of attachment to fibronectin” value in assay [2] is given as “inhibited attachment of cells to both substrates at relatively similar concentrations”.

Source of the values: patent US5827821A, “Conformationally stabilized cell adhesion peptides” (The Burnham Institute, priority 1992, dated 1998).
